Where “and” joins values, the source holds several entries; their conditions need not be identical. Equal values may be shown once. Read-outs that look alike come from different tables or passages of the source. No end group written: not given here.
Assays:
Assay in all cases: biochemical
H-2 Db = H-2 Db (Mus musculus, UniProt P01899); type: binding, murine; conditions: Db
H-2Dd = H-2Dd (Mus musculus, UniProt P01900); type: binding, murine
HLA-DR DRB1*0802 (DR8) = HLA-DR DRB1*0802 (DR8) (Homo sapiens, UniProt P01903+P01911, A100R/A103L/A169T/F76Y/H45Y/I96F/K41T/L162R/M171V/P40S/Q125H/Q178H/Q39Y/Q99D/R218S/R42G/S66Y/V115G/W38E); type: binding
HLA-DR DRB1*0301 (DR3) = HLA-DR DRB1*0301 (DR3) (Homo sapiens, UniProt P01903+P01911, A100K/A102G/A103R/A169T/F55Y/I96L/K41T/L162R/M171V/P40S/Q125H/Q178H/Q39Y/R42S/S66N/T106N/T262R/W38E/Y61H); type: binding
HLA-DR DRB1*0301 (DR3), sequence (P01903 26-254 limits assumed, other chains not shown): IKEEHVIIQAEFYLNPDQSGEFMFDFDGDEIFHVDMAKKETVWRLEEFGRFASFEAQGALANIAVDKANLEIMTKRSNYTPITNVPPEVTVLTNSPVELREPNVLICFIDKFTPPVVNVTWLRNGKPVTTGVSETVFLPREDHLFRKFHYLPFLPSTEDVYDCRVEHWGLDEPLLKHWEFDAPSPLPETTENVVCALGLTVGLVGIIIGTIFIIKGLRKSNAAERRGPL

HLA-DR DRB3*0101 (DR52) = HLA-DR DRB3*0101 (DR52) (Homo sapiens, UniProt P01903+P79483); type: binding
HLA-DR DRB1*0901 (DR9) = HLA-DR DRB1*0901 (DR9) (Homo sapiens, UniProt P01903+P01911, A100R/A103E/D57H/D86V/F55Y/F60I/F76Y/I96F/K127E/L162R/M171V/P40D/Q125H/Q99R/R33Q/R42F/S133A/S66N/T210M/V115G/W38K/Y107V/Y59G/Y89S); type: binding; conditions: DRB1 *0901
HLA-DR DRB1*0405 (DR4) = HLA-DR DRB1*0405 (DR4) (Homo sapiens, UniProt P01903+P01911, A100R/A169T/D86S/F76Y/I96L/K127E/L162R/M171V/N62H/P40V/Q125Y/R42H/S133A/S149N/S66Y/V115G/V209L/W38E); type: binding; conditions: DRB1 *0405
HLA-DR DRB4*0101 (DR53) = HLA-DR DRB4*0101 (DR53) (Homo sapiens, UniProt P01903+P13762, G164S); type: binding
HLA-DR DRB1*1501 (DR15) = HLA-DR DRB1*1501 (DR15) (Homo sapiens, UniProt P01903+P01911); type: binding
HLA-DR DRB1*1101 (DR11) = HLA-DR DRB1*1101 (DR11) (Homo sapiens, UniProt P01903+P01911, A100R/A169T/A87E/I96F/K41T/L162R/M171V/P40S/Q125H/Q178H/Q39Y/Q99D/R42S/S66Y/T262R/V115G/W38E); type: binding
HLA-DR DRB1*1101 (DR11), sequence (P01903 26-254 limits assumed, other chains not shown): as above

HLA-DR DRB1*0701 (DR7) = HLA-DR DRB1*0701 (DR7) (Homo sapiens, UniProt P01903+P01911, A100R/A102G/A103Q/D57E/D86V/E43K/F76Y/K127E/L162R/M171V/P40G/Q125H/Q99D/R33Q/R42Y/R54Q/S133A/S66F/T210M/V115G/Y107V/Y59L/Y89S); type: binding; conditions: DRB1 *0701
HLA-DR DRB5*0101 (DR51) = HLA-DR DRB5*0101 (DR51) (Homo sapiens, UniProt P01903+Q30154); type: binding
HLA-DR DRB1*0401 (DR4) = HLA-DR DRB1*0401 (DR4) (Homo sapiens, UniProt P01903+P01911, A100K/A169T/F76Y/I96L/K127E/L162R/M171V/N62H/P40V/Q125Y/R42H/S133A/S149N/S66Y/V115G/V209L/W38E); type: binding; conditions: DRB1 *0401
[1] = target: HLA-DQ DQA1*0301/B*0301 (DQ7) (Homo sapiens, UniProt P01909+P01920, A209T/C70Q/DUP78-78/E183D/F237L/G63E/I129T/K197E/L178F/L74F/L98V/Q57E/Q76R/S185I/S97I/T49S/V73L); type: binding
HLA-B*0702 = HLA-B*0702 (Homo sapiens, UniProt P01889); type: binding; conditions: B*0702 binding affinity (IC50)
HLA-B*5101 = HLA-B*5101 (Homo sapiens, UniProt P01889, A329T/A93T/A95T/C349S/D138N/D201E/D98Y/E187L/E204Q/E69T/G107R/I218V/K202T/L105A/L119W/N104I/Q94N/R106L/R155S/R180L/S101N/S121T/S35A/S48A/V306I/V36M/Y195H/Y91F); conditions: B*5101 binding affinity (IC50)
HLA-B*5401 = HLA-B*5401 (Homo sapiens, UniProt P01889, A329T/C349S/D138N/D201E/E176V/E187T/E204Q/E69G/I76V/K202T/L119W/R155S/R180L/S121T/S35A/S48A/V127L/V306I/V36M/Y140L); type: binding; conditions: B*5401 binding affinity (IC50)
HLA-B*3501 = HLA-B*3501 (Homo sapiens, UniProt P01889, A329T/A93T/A95T/C349S/D201E/D98Y/E176V/E187L/E204Q/E69T/I218V/K202T/L119I/Q94N/R155S/R180L/S121R/S35A/S48A/T118I/V127L/V306I/V36M/Y140S/Y91F); conditions: B*3501 binding affinity (IC50)
HLA-DR DRB1*1302 (DR13) = HLA-DR DRB1*1302 (DR13) (Homo sapiens, UniProt P01903+P01911, A100E/A169T/K41T/L162R/M171V/P40S/Q125H/Q178H/Q39Y/Q99D/R42S/S66N/T262R/V115G/W38E/Y61H); type: binding; conditions: read-out: DRBI *1302
HLA-DR DRB1*1302 (DR13), sequence (P01903 26-254 limits assumed, other chains not shown): as above

H-2 Db, sequence (P61769 21-119): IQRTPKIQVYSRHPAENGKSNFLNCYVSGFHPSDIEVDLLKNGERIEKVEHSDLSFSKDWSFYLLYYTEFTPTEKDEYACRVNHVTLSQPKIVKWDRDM
H-2 Db, sequence (P01899 25-362): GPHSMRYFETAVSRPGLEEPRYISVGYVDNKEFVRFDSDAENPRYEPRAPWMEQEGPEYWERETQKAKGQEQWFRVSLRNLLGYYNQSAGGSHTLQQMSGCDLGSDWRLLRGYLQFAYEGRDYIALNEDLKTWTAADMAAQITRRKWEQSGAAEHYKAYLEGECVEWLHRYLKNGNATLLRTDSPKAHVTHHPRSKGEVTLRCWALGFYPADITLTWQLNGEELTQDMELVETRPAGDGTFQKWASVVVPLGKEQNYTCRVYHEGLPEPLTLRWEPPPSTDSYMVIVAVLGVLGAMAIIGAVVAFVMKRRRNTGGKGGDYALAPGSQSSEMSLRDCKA
H-2Dd, sequence (P01900 25-365): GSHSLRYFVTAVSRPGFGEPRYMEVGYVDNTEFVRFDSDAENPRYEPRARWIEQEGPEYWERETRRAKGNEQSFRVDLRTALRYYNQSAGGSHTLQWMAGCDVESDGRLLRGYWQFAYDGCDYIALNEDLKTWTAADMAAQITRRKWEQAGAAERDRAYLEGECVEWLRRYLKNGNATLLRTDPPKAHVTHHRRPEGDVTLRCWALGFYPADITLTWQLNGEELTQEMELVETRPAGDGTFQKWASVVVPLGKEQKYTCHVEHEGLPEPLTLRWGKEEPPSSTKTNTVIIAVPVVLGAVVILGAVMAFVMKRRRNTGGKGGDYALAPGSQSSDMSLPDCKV
H-2Dd, sequence (P61769 21-119, further chain): as the sequence (P61769 21-119) above

## CSCC[C@H](NC(=O)[C@@H](NC(=O)[C@H](CCC(=O)O)NC(=O)[C@H](CCSC)NC(=O)[C@H](CC(N)=O)NC(=O)[C@H](CCC(=O)O)NC(=O)[C@H](CC(N)=O)NC(=O)[C@H](CO)NC(=O)[C@H](C)N)[C@@H](C)O)C(=O)O
H-2 Db
  IC50: 41 nM and 33 nM
H-2Dd
  IC50: > 37000 nM

## CC[C@H](C)[C@H](NC(=O)[C@@H](N)CCCCN)C(=O)N[C@@H](Cc1ccccc1)C(=O)NCC(=O)N[C@@H](CO)C(=O)N[C@@H](CC(C)C)C(=O)N[C@@H](C)C(=O)N[C@@H](Cc1ccccc1)C(=O)N[C@@H](CC(C)C)C(=O)N1CCC[C@H]1C(=O)N[C@@H](CCC(=O)O)C(=O)N[C@@H](CO)C(=O)N[C@@H](Cc1ccccc1)C(=O)N[C@@H](CC(=O)O)C(=O)NCC(=O)N[C@@H](CC(=O)O)C(=O)N1CCC[C@H]1C(=O)N[C@@H](C)C(=O)O
HLA-DR DRB1*0802 (DR8)
  IC50: > 75400 nM
HLA-DR DRB1*0301 (DR3)
  IC50: 74200 nM
HLA-DR DRB3*0101 (DR52)
  IC50: 43700 nM
HLA-DR DRB1*0901 (DR9)
  IC50: 15800 nM
HLA-DR DRB1*0405 (DR4)
  IC50: 37 nM
HLA-DR DRB4*0101 (DR53); DRB4 *0101
  IC50: 10000 nM
HLA-DR DRB1*1501 (DR15); DRBI *1501
  IC50: 2260 nM
HLA-DR DRB1*1101 (DR11); DRB1 *1101
  IC50: > 52600 nM
HLA-DR DRB1*0701 (DR7)
  IC50: 377 nM
HLA-DR DRB5*0101 (DR51); DRB5 *0101
  IC50: 8010 nM
HLA-DR DRB1*0401 (DR4)
  IC50: 1200 nM
[1]
  IC50: 320 nM

## CC(C)C[C@H](NC(=O)CNC(=O)[C@H](CCC(N)=O)NC(=O)[C@H](Cc1ccc(O)cc1)NC(=O)[C@@H](NC(=O)[C@H](Cc1ccc(O)cc1)NC(=O)CNC(=O)[C@@H](N)CCCNC(=N)N)C(C)C)C(=O)O
H-2 Db
  IC50: > 44000 nM
H-2Dd
  IC50: > 37000 nM

## CC[C@H](C)[C@H](NC(=O)[C@H](CCC(=O)O)NC(=O)[C@@H]1CCCN1C(=O)[C@@H]1CCCN1C(=O)[C@@H](NC(=O)[C@H](CC(N)=O)NC(=O)[C@H](CO)NC(=O)[C@@H]1CCCN1C(=O)CNC(=O)[C@@H](N)CO)[C@@H](C)O)C(=O)O
H-2 Db
  IC50: 8.1 nM

## (44)YAAAAAAKAAA
[1]; read-out: DQB1*0301
  IC50: 26 nM

## AAAANAAAM
H-2 Db
  IC50: 23 nM

## AGPYRAFVTI
H-2Dd
  IC50: 5 nM

## AHAAHAAHAAHAAHAA
HLA-DR DRB1*1101 (DR11); DRB1 *1101
  IC50: ≥ 200000 nM
HLA-DR DRB1*0701 (DR7)
  IC50: > 250000 nM
HLA-DR DRB5*0101 (DR51); DRB5 *0101
  IC50: ≥ 200000 nM
HLA-DR DRB1*0401 (DR4)
  IC50: 80000 nM
[1]
  IC50: 58 nM

## APAAGPGPGPA
HLA-B*0702
  IC50: 173 nM

## APAAPGPGPGA
HLA-B*0702
  IC50: 811 nM

## APAGPGPGAPA
HLA-B*0702
  IC50: 161 nM

## APGPGPGLL
HLA-B*0702
  IC50: 299 nM

## APGPGPGTAL [APGPGPGTAL]
HLA-B*0702
  IC50: 81 nM

## APRGPGPGAL [APRGPGPGAL]
HLA-B*0702
  IC50: 11 nM

## APRGPGPGL
HLA-B*0702
  IC50: 4.9 nM

## APRTGPGPGL
HLA-B*0702
  IC50: 15 nM

## ASNENMDAM
H-2 Db
  IC50: 28 nM

## CLKDRRNFDIIPEEIK
[1]; read-out: DQB1*0301
  IC50: 19400 nM

## CMANNSHHYI
H-2 Db
  IC50: 220 nM

## CSANNSHHYM
H-2 Db
  IC50: 42 nM

## DDVWLGGLAEKFLPY
[1]; read-out: DQB1*0301
  IC50: 241 nM

## FAPGYNPAL [FAPGYNPAL]
H-2 Db
  IC50: 2 nM

## FPVRPQVPI
HLA-B*5101
  IC50: 39 nM
HLA-B*5401
  IC50: 9.1 nM
HLA-B*0702
  IC50: 94 nM
HLA-B*3501
  IC50: 124 nM

## FQPQNGQFI
H-2 Db
  IC50: 6.9 nM and 4.9 nM and 17 nM

## FSPRRNGYL
H-2Dd
  IC50: 2.7 nM

## GGAYRLIVF
H-2Dd
  IC50: 3.5 nM

## GMRQNATEI
H-2 Db
  IC50: 81 nM

## GPGHKARVI
HLA-B*5101
  IC50: > 55000 nM
HLA-B*5401
  IC50: > 50000 nM
HLA-B*0702
  IC50: 1690 nM
HLA-B*3501
  IC50: > 72000 nM

## GPKVKQWPI
HLA-B*5101
  IC50: > 55000 nM
HLA-B*5401
  IC50: > 50000 nM
HLA-B*0702
  IC50: 5500 nM
HLA-B*3501
  IC50: > 72000 nM

## GSDLVEALYLVCGER
[1]
  IC50: > 89300 nM

## IDVWLGDLAENFLPY
[1]
  IC50: > 44600 nM

## IDVWLGGLDENFLPY
[1]
  IC50: > 19200 nM

## IDWDLGGLAENFLPY
[1]; read-out: DQB1*0301
  IC50: 218 nM

## KAVYNFATCGI
H-2 Db
  IC50: 29 nM

## KEDSHCAWTWRVEI
[1]; read-out: DQB1*0301
  IC50: 4100 nM

## KGPYRAFVTI
H-2Dd
  IC50: 5.8 nM

## KQYLNLYPV
H-2 Db
  IC50: 3.4 nM

## KVPRNQDWL
H-2 Db
  IC50: 38 nM

## QKEDAAVTIYIEMLQN
[1]; read-out: DQB1*0301
  IC50: 515 nM

## QLQQFQKEDAAVTIY
HLA-DR DRB4*0101 (DR53); read-out: DRB4 *0101
  IC50: 1340 nM
HLA-DR DRB1*1501 (DR15); read-out: DRBI *1501
  IC50: 1720 nM
HLA-DR DRB1*1101 (DR11); read-out: DRB1 *1101
  IC50: > 408000 nM
HLA-DR DRB5*0101 (DR51); read-out: DRB5 *0101
  IC50: 4270 nM
[1]; read-out: DQB1*0301
  IC50: 26200 nM
HLA-DR DRB1*1302 (DR13)
  IC50: 68 nM

## RGAYRAFVTI
H-2Dd
  IC50: 3.4 nM

Source: US20060079453A1, “Hla binding peptides and their uses” (priority 2002, published 2006)
